Experimental data as given in patent US9034878B2, “Treatment of diseases” (Ampio Pharmaceuticals, Inc., priority 2010, dated 2015).
“And” between values parts separate entries of the source, which are not always exact repeats. Identical values can stand only once.

How the values were obtained:
[1] = test system: vascular endothelial barrier; settings: provisional application No. 61/380,404; cited from earlier work
[2] = test system: Subcutaneous preadipocytes; assay: Adipogenesis assay (AdipoRed fluorescence); type: cell-based; settings: 14 days differentiation
Protocol: Subcutaneous preadipocytes (Zen-Bio, Inc., Research Triangle Park, N.C.) were cultured to near confluency at 5% CO2, 37° C. in Preadipocyte Growth Medium-2 (PGM-2, Lonza, Walkersville, Md.) containing 10% fetal bovine serum (FBS), L-glutamine, and GA-1000. Cells were harvested using trypsin/EDTA (Lonza) and initially seeded in 96-well black/clear bottom plates at 3,000 cells/well. Cells were allowed to form a confluent monolayer for 7 days in culture.
7-day old medium was aspirated and cells were dosed with DA-DKP (doses used in PGM-2 media: 25, 50, or 100 μM) in triplicate on two plates. The DA-DKP was composed of L-aspartic acid and L-alanine. […]
After the 14 day incubation period, culture media were collected from all wells and stored at −20° C. for IL-6 ELISA (see below). […] After 10 minutes, fluorescence was measured on a plate reader set at λEX=485 nm and λEM=572 nm.
The triplicate fluorescent values for each treatment were averaged and subtracted from the average media only (i.e. no cells) wells. For the differentiated wells, a % change was calculated by subtracting the average fluorescent value for the differentiated cells from the undifferentiated cells for each treatment group. […] All data are expressed as ±SD. […]

[3] = test system: Peripheral blood mononuclear cells (PBMC); assay: PBMC CD69 expression by flow cytometry after OKT3 stimulation (ex vivo); type: cell-based, human; settings: single individual
Protocol: • 1. Two human male volunteers and one human volunteer (respectively) were administered 100 mg of DA-DKP (packed in a gelatin capsule) orally on an empty stomach after overnight fasting. The DA-DKP was composed of L-aspartic acid and L-alanine. • 2. Venous blood samples were drawn into heparinized and EDTA vacutainers at baseline (time zero), 2 hours (hrs), 4 hrs and 24 hrs after the ingestion of the DA-DKP. • 3. Blood samples were analyzed for a complete blood count (CBC) and a biochemical survey, including plasma lipids at baseline and at the 24 hrs time points. […] Peripheral blood monocytes (PBMC) from heparinized bloods were extracted by Ficoll gradient method and analyzed by flow cytometry. […] Urines were collected for 24 hrs and volumes were recorded. DA-DKP levels were also measured by LCMS. • 6. […] Urine levels of DA-DKP were calculated (see Table 2). • 6. Saliva DA-DKP levels were calculated (see Table 2) • 7. […]
Peripheral blood mononuclear cells (PBMC) were isolated from peripheral blood, and 2,000,000 cells were cultured in DMEM medium with 10% human AB serum plus 2% (final concentration) of anti-T-cell receptor complex antibody OKT3. […] After culture overnight at 37° C. cells were washed, incubated with an anti-CD69 antibody, fixed and analyzed on the flow cytometer for CD69 expression. […]

MAPK = settings: reference 12; cited from earlier work
[4] = Effects noticed by subjects after oral DA-DKP (appetite, analgesia, side effects); type: in vivo, human; settings: 100 mg oral
Protocol: (§1) • 1. Two human male volunteers and one human volunteer (respectively) were administered 100 mg of DA-DKP (packed in a gelatin capsule) orally on an empty stomach after overnight fasting. The DA-DKP was composed of L-aspartic acid and L-alanine. • 2. Venous blood samples were drawn into heparinized and EDTA vacutainers at baseline (time zero), 2 hours (hrs), 4 hrs and 24 hrs after the ingestion of the DA-DKP. • 3. Blood samples were analyzed for a complete blood count (CBC) and a biochemical survey, including plasma lipids at baseline and at the 24 hrs time points. Plasma was also used for measurement of the level of DA-DKP by a liquid chromatography mass spectrometer (LCMS) method (protocol and results given below). • 4. Peripheral blood monocytes (PBMC) from heparinized bloods were extracted by Ficoll gradient method and analyzed by flow cytometry. The protocol and results are given below. • 5. Urines were collected for 24 hrs and volumes were recorded. DA-DKP levels were also measured by LCMS. • 6. Saliva at 2 hrs was tested for the presence of DA-DKP by LCMS. Summary of Results: • 1. CBC's were unchanged and remained within the normal range. • 2. BUN, glucose electrolytes, creatinine, liver function tests, total protein, albumin and calcium were unchanged and within the normal range at 24 hours post ingestion. • 3. […] Urine levels of DA-DKP were calculated (see Table 2). • 6. Saliva DA-DKP levels were calculated (see Table 2) • 7. PBMC results are described below. • 8. Effects noticed by subjects: • a. Significant loss of appetite (lasting 8-9 hrs)—3/3 subjects • b. Slight dry mouth—2/3 subjects • c. Thick saliva—1/3 subjects • d. […] Laxative effect—1/3 subjects • f. Slight drowsiness—1/3 subjects * Analgesic Effect:
One subject had left knee and left Sacroiliac (SI) joint pain. […] The pain originates probably from inflammation caused by sarcoidosis and was 6-7 on a scale of 1-10 before treatment. The effect lasted for about 4 hrs.

platelets = settings: U.S. Pat. Nos. 6,555,543 and 7,732,403; cited from earlier work
T-cells = settings: U.S. Pat. Nos. 6,555,543 and 7,732,403; cited from earlier work
[5] = DA-DKP LCMS measurement in plasma, urine and saliva after oral dose; type: in vivo, human; settings: 100 mg oral
Protocol: as §1, with “Venous blood samples were drawn into heparinized and EDTA vacutainers at baseline (time zero), 2 hours (hrs), 4 hrs and 24 hrs after the ingestion of the DA-DKP. • 3.” left out
Plasma or urines were passed through a <5 Kd filter and 50 μl of the flow-through fractions were injected into high performance liquid chromatography (HPLC, 2975 system, Waters, Mass.) coupled to a mass spectrometer (LCT-TOF, Micromass, UK) and DA-DKP was quantified using a strong anion exchange column (Spherisorb, S5 SAX 250 mm×4.0 mm, Waters) and a ternary mobile phase consisting of water, methanol and 200 mM Ammonium Formate (Sigma Aldrich, Mo.), pH 5.4, at 0.5 ml/min flow rate in a gradient as shown in Table A.
The output of the HPLC was split 1:20 (v:v) and injected into the mass spectrometer using negative electrospray ionization (−ESI MS) with a scan range of 80 to 1000 m/z, cone voltage of 30 eV, source temperature of 100° C., and gas temperature of 300° C. DA-DKP was measured by monitoring the mass 185 in time, which corresponds to DA-DKP minus a single proton (—H+). DA-DKP elutes at 10.4 minutes and was quantified by integrating the area under the curve. The area was compared to a standard curve derived from synthetic DA-DKP standards (DMI Synthesis, Newport Wales, UK) of known concentrations (2000 ng/ml, 1000 ng/ml, 400 ng/ml, 200 ng/ml, 100 ng/ml, 20 ng/ml).

interleukin-6 (IL-6) = assay: IL-6 ELISA of preadipocyte culture media; type: cell-based; settings: after the 2 week differentiation period (data not shown)
Protocol: 7-day old medium was aspirated and cells were dosed with DA-DKP (doses used in PGM-2 media: 25, 50, or 100 μM) in triplicate on two plates. The DA-DKP was composed of L-aspartic acid and L-alanine. PGM-2 differentiation media (containing insulin, dexamethasone, indomethacin, and isobutyl-methylxanthine; Lonza) was added to one plate, while PGM-2 media was added to the other. Plates were then placed back in culture and allowed to incubate for 14 days.
After the 14 day incubation period, culture media were collected from all wells and stored at −20° C. for IL-6 ELISA (see below). Wells were rinsed once with 1×PBS (Lonza). 50 μL M-PER lysis solution (Thermo Scientific, Rockford, Ill.) were added to all wells, and complete cell lysis was achieved by mixing each well. 150 μL 1×PBS was added to each well. 5 μL AdipoRed™ Reagent (Lonza) was added to each well, and the plate was mixed immediately by gentle tapping. After 10 minutes, fluorescence was measured on a plate reader set at λEX=485 nm and λEM=572 nm.
Enzyme-linked immunosorbent assay (ELISA) matched-pair antibodies for interleukin-6 (IL-6) were obtained from Thermo Scientific (Rockford, Ill.). IL-6 was analyzed by ELISA and performed according to the manufacturer's instructions. A 1:10 dilution of each supernatant was measured in duplicate using an IL-6 standard (Thermo Scientific, Rockford, Ill.).

[6] = Complete blood count and biochemical survey after oral DA-DKP; type: in vivo; settings: 100 mg oral, human
Protocol: (§2) • 1. Two human male volunteers and one human volunteer (respectively) were administered 100 mg of DA-DKP (packed in a gelatin capsule) orally on an empty stomach after overnight fasting. The DA-DKP was composed of L-aspartic acid and L-alanine. • 2. Venous blood samples were drawn into heparinized and EDTA vacutainers at baseline (time zero), 2 hours (hrs), 4 hrs and 24 hrs after the ingestion of the DA-DKP. • 3. Blood samples were analyzed for a complete blood count (CBC) and a biochemical survey, including plasma lipids at baseline and at the 24 hrs time points. Plasma was also used for measurement of the level of DA-DKP by a liquid chromatography mass spectrometer (LCMS) method (protocol and results given below). • 4. Peripheral blood monocytes (PBMC) from heparinized bloods were extracted by Ficoll gradient method and analyzed by flow cytometry. The protocol and results are given below. • 5. Urines were collected for 24 hrs and volumes were recorded. DA-DKP levels were also measured by LCMS. • 6. Saliva at 2 hrs was tested for the presence of DA-DKP by LCMS. Summary of Results: • 1. CBC's were unchanged and remained within the normal range. • 2. […] Urine levels of DA-DKP were calculated (see Table 2). • 6. Saliva DA-DKP levels were calculated (see Table 2) • 7. […]

endothelial cells = settings: provisional application No. 61/380,404; cited from earlier work
[7] = Plasma lipids after a single oral dose of DA-DKP in human volunteers; type: in vivo; settings: 100 mg oral; all three subjects
Protocol: as §2

C[C@@H]1NC(=O)[C@H](CC(=O)O)NC1=O [DA-DKP]
Vascular hyperpermeability [1]: inhibit | Effect on adipogenesis ([2]; 25 μM): significant decrease | Effect on adipogenesis ([2]; 100 μM): increase | Time of greatest effect on CD69 expression ([3]; after DA-DKP ingestion): 4 h | CD69 expression on CD45RA and CD45RO cells ([3]; after ingestion of DA-DKP vs time zero, OKT3 stimulation): decreased | MAPK activity in T-lymphocytes (MAPK): inhibitory effect | Duration of loss of appetite ([4]; human): 8 to 9 h | Laxative effect, subjects affected ([4]; human): 1/3 | Significant loss of appetite, subjects affected ([4]; human): 3/3 | Slight drowsiness, subjects affected ([4]; human): 1/3 | Slight dry mouth, subjects affected ([4]; human): 2/3 | Thick saliva, subjects affected ([4]; human): 1/3 | Analgesic effect, subjects affected ([4]; human, others did not have pain): 1/3 | Duration of analgesic effect ([4]; one subject): about 4 hrs | Reduction of SI joint pain ([4]; one subject): about 50% | Time to analgesic effect after ingestion ([4]; one subject): 1 to 2 h | Left knee pain ([4]; one subject, pain 6-7 on a scale of 1-10 before treatment): resolved completely | Aggregation of platelets (platelets): inhibit | Activation of T-cells (T-cells): inhibit | DA-DKP plasma level at 24 hrs post ingestion ([5]; human): not detectable | Time of peak DA-DKP plasma level ([5]; human): about 2 hrs | DA-DKP in plasma, 15 min ([5]; 15 min, per human subject): 0.14 µM | DA-DKP in plasma, 30 min ([5]; 30 min, per human subject): 0.35 µM | DA-DKP in plasma, 60 min ([5]; 60 min, per human subject): 0.84 µM | DA-DKP in plasma, 240 min ([5]; 240 min, per human subject): 0.25 µM and 0.34 µM | DA-DKP in plasma, 360 min ([5]; 360 min, per human subject): 0.61 µM | DA-DKP in Saliva 2 hrs ([5]; saliva at 2 hrs, per human subject): 0.22 µM and 0.29 µM | DA-DKP in Urine 24 hrs ([5]; urine collected for 24 hrs, per human subject): 4.25 µM and 6.98 µM and 3.52 µM | Effect on IL-6 levels (interleukin-6 (IL-6)): no significant effect | BUN, glucose electrolytes, creatinine, liver function tests, total protein, albumin and calcium ([6]; 24 hours post ingestion, within the normal range): unchanged | CBC ([6]; remained within the normal range): unchanged | Cytoskeletal network in endothelial cells (endothelial cells): stabilize | Lipids at 24 hours post ingestion [7]: decreased across the board
